Values quoted from earlier work as cited in patent US20240217930A1 (priority 2021, published 2024).

Tests used:
[1] = tested on: live virus; settings: cited from earlier work
[2] = tested on: ten further coronavirus strains; settings: read-out: Ki against ten further coronavirus strains; cited from earlier work
[3] = trials performed in cats; cited from earlier work

Compound | activity in cell-based live virus assays [1] [µM] | Ki [2] [nM] | side effects in cats [3]
PF-00835231 | ~1 | 0.03 to 4 | 
CC(C)C[C@H](NC(=O)OCc1ccccc1)C(=O)N[C@@H](C[C@@H]1CCNC1=O)C(O)S(=O)(=O)[O-].[Na+] (stereo partly drawn) [GC376] |  |  | has shown side effects
